This note sets out measurements from ChEMBL document CHEMBL1201862, “PubChem BioAssay data set” (2004).

Experiment [1] is described as follows: Counterscreen for activators of the function of SWI/SNF related, matrix associated, actin dependent regulator of chromatin, subfamily a, member 2 (SMARCA2, BRM): Luminescence-based cell-based high throughput dose response assay to identify non-selective compounds using the VP16 reporter assay. The experiment is classed as functional. Background: The purpose of a counterscreen is to sort out artefacts and off-target activity.

Experiment [2] can be described thus: Luminescence Cell-Based Dose Response HTS to Identify Activators of Luciferase Translation or Activity in H4 […] Cells. [Related pubchem assays: 1829 (Project Summary), 1814 (Primary HTS)]. The class given is functional.
Experiment [3] is described as follows: Luminescence Cell-Based Dose Confirmation HTS to Identify Activators of 5'UTR Stem-Loop Driven Alpha-Synuclein mRNA Translation in H4 Neuroglioblastoma Cells. [Related pubchem assays: 1829 (Project Summary), 1814 (Primary HTS)]. The experiment is classed as functional.
For a further experiment, the system named is H4. Kind of experiment: Luminescence Cell-Based Dose Response HTS to Identify Activators of 5'UTR Stem-Loop Driven Prion Protein mRNA Translation in H4 Neuroglioblastoma Cells. [Related pubchem assays: 1829 (Project Summary), 1814 (Primary HTS)]. The experiment is classed as functional. The settings on record: Homo sapiens.
Experiment [4] concerns the target SWI/SNF-related matrix-associated actin-dependent regulator of chromatin subfamily A member 2 (Homo sapiens, UniProt P51531). Kind of experiment: Luminescence-based cell-based high throughput dose response assay to identify activators of the function of SWI/SNF related, matrix associated, actin dependent regulator of chromatin, subfamily a, member 2 (SMARCA2, BRM). The experiment is classed as functional.

A short description of experiment [5]: cytotoxicity dependent on PAX8, dose response, cell-based, plate reader, dry powder (AID 743049). The class given is functional.
A short description of experiment [6]: NIH:OVCAR-3 ovarian cancer cell cytotoxicity, dose response, PAX8 inhibitor project, plate reader, dry powder samples (AID 743044). The experiment is classed as functional, cell-based.
A short description of experiment [7]: cytotoxicity in COV434 cells, dose response, cytotoxicity control for PAX8 inhibitor project, cell-based, plate reader, dry powder, SA7 (AID 743145). The class given is functional.
Experiment [8] in a line: cytotoxicity in OV-90 ovarian cancer cells, dose response, PAX8 inhibitor project, cell-based, plate reader, dry powder, SA8 (AID 743149). The experiment is classed as functional.
In the next experiment the target is Paired box protein Pax-8 (Homo sapiens, UniProt Q06710). Kind of experiment: inhibitors of PAX8-driven TPO luciferase reporter, dose response, RMG-I cells, cherry-pick (AID 687027).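 Also: luciferase reporter driven by Pax8 target thyroperoxidase promoter measured by SteadyGlo luminescence.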 The class given is functional, cell-based.
Experiment [9] can be described thus: IOSE-T80 ovarian epithelial cell cytotoxicity, dose response, cytotoxicity control for PAX8 inhibitor project, plate reader, dry powder samples (AID 743045). The class given is functional, cell-based.
Experiment [10] in a line: cytotoxicity in OVCAR4 cells, dose response, cytotoxicity control for PAX8 inhibitor project, cell-based, plate reader, dry powder, SA11 (AID 743150). The class given is functional. The settings on record: OVCAR-4.
Experiment [11] concerns the target T1, Rac GTPase-activating protein 1 (Homo sapiens, UniProt Q9H0H5).
T1 sequence (Q9H0H5 whole entry): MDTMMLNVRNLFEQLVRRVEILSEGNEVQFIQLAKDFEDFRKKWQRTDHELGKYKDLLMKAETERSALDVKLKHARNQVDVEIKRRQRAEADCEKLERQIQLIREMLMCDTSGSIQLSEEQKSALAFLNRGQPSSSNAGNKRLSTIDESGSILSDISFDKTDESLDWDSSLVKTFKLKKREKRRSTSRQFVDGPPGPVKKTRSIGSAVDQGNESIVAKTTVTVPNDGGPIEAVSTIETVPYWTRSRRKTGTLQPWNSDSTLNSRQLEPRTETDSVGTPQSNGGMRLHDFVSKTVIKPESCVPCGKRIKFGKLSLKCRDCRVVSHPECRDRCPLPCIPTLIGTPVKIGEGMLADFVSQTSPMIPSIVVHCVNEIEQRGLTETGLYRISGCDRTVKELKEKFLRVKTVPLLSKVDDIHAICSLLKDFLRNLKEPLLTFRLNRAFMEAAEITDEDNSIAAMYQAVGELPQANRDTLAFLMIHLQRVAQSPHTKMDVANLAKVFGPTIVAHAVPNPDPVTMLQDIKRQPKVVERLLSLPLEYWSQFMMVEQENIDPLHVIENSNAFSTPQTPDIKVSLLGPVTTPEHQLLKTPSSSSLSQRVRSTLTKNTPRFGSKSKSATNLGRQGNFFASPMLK
Kind of experiment: MgcRacGAP GTPase-activating activity inhibitors, confirmation, biochemical, ADP Hunter fluorescence, primary and confirmatory (AID 624330). The class given is functional.

Experiment [12] in a line: Counterscreen for inhibitors of Trypanosoma brucei methionyl tRNA synthetase (MetRS): Luminescence-based cell-based high throughput dose response assay to identify compounds that are cytotoxic to Jurkat human T lymphocyte cells. The experiment is classed as functional.
In experiment [13] the target is T2, Methionyl-tRNA synthetase, putative (Trypanosoma brucei brucei, UniProt Q38C91).
T2 sequence (Q38C91 whole entry): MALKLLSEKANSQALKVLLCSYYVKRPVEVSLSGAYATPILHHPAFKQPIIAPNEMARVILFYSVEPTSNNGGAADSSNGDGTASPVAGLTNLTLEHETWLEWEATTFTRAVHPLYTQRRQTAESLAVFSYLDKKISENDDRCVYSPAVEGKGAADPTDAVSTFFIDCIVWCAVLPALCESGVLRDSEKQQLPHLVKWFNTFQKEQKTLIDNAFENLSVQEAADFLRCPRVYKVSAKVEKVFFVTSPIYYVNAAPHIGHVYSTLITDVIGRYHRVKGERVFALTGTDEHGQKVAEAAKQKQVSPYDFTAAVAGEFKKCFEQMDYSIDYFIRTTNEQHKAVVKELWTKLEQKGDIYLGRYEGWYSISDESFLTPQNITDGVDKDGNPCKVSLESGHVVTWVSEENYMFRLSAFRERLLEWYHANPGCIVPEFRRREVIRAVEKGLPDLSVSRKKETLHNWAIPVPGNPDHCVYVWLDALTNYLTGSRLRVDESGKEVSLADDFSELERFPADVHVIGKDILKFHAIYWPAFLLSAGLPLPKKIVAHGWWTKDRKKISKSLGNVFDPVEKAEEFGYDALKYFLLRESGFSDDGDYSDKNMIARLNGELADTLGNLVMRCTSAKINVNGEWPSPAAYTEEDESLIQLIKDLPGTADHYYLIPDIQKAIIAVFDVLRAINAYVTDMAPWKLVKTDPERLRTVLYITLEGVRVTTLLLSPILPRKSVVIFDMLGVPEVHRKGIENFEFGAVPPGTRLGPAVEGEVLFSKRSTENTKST
The experiment is classed as functional, Trypanosoma brucei brucei strain 927/4 GUTat10.1.

Experiment [14] concerns the target T2, Methionyl-tRNA synthetase, putative. The experiment is classed as functional, Trypanosoma brucei brucei strain 927/4 GUTat10.1. This is another data set of the same source.
A short description of experiment [15]: HeLa cell cytotoxicity, dose response, cytotoxicity control for MgcRacGAP inhibitor project (AID 624300). The experiment is classed as functional.
Experiment [16] addresses FAD-linked sulfhydryl oxidase ALR (Homo sapiens, UniProt P55789). Kind of experiment: inhibitors of human ALR sulfhydryl oxidase, dose response, biochemical, H2O2 detection, luminescence, cherry-pick (AID 493248).
For the next experiment, the system named is HeLa. The experiment can be described thus: HeLa cell cytotoxicity, dose response, cytotoxicity control for MITF activator project, CellTiter-Glo luminescence, cherry-pick samples (AID 540259). The settings on record: Homo sapiens. The class given is functional, cell-based.
A further experiment concerns HEK293. The experiment can be described thus: HEK293T cell cytotoxicity, dose response, cytotoxicity control, ATP luminescence, cherry-pick samples (AID 687005).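 Also: cells exposed to compound for 48 hours.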 The class given is functional, cell-based. The settings on record: Homo sapiens.
A short description of experiment [17]: HEK293 Cytotoxicity Assay Measured in Cell-Based System Using Plate Reader - 7071-01_Inhibitor_Dose_CherryPick_Activity_Set2. The experiment is classed as functional.

Activity calls are given as the source filed them. Bounds are passed on as bounds.

SWI/SNF-related matrix-associated actin-dependent regulator of chromatin subfamily A member 2, sequence (P51531 whole entry): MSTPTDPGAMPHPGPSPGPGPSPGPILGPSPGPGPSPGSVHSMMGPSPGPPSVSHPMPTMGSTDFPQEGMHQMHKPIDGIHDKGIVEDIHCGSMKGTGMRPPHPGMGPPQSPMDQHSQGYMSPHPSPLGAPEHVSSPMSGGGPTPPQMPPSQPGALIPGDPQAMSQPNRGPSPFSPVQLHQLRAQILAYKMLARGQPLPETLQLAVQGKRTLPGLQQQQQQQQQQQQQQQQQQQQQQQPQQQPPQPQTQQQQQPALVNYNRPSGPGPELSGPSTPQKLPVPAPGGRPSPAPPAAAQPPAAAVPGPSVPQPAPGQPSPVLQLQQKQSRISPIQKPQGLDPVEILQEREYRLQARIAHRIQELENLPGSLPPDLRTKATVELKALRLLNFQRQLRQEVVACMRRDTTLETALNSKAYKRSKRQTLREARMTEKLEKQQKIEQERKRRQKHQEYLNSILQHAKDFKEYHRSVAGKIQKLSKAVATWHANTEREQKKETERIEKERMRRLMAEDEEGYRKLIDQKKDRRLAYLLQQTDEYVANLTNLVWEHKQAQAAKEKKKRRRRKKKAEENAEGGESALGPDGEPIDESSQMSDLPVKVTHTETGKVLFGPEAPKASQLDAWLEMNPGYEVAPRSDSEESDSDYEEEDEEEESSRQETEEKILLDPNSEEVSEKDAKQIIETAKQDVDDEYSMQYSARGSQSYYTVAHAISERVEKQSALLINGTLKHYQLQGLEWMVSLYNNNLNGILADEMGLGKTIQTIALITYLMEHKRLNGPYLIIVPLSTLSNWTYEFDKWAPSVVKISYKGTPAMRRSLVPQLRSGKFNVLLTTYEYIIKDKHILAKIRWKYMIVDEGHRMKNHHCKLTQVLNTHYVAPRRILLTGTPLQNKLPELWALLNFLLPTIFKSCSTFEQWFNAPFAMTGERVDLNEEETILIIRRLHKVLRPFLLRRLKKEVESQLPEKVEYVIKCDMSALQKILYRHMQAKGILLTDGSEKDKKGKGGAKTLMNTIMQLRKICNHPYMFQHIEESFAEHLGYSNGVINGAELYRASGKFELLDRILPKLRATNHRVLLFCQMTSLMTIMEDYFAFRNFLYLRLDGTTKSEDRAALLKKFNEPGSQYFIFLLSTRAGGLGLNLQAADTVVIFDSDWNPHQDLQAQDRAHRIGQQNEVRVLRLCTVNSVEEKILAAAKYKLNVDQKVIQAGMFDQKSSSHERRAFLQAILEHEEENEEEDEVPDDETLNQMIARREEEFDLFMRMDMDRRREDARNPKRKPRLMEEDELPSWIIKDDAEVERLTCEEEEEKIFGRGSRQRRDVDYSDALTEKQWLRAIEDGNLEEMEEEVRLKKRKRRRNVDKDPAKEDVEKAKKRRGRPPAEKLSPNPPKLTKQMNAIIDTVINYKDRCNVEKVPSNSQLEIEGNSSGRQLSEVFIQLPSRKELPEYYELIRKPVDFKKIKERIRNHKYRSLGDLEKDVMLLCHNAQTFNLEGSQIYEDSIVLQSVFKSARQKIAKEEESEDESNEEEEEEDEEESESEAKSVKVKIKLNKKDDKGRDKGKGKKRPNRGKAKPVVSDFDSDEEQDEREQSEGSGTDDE
Paired box protein Pax-8, sequence (Q06710 whole entry): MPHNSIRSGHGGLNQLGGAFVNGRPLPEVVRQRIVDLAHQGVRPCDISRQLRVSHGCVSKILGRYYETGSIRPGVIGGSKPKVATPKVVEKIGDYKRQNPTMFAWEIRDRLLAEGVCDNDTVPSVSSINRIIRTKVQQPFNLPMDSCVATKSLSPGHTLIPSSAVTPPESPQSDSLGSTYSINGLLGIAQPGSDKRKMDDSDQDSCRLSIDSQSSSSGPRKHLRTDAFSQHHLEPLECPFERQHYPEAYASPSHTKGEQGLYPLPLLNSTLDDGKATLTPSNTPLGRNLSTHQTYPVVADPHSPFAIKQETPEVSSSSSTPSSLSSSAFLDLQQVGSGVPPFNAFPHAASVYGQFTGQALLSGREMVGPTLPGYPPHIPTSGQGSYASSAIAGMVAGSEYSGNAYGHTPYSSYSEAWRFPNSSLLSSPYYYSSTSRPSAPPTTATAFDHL
FAD-linked sulfhydryl oxidase ALR, sequence (P55789 whole entry): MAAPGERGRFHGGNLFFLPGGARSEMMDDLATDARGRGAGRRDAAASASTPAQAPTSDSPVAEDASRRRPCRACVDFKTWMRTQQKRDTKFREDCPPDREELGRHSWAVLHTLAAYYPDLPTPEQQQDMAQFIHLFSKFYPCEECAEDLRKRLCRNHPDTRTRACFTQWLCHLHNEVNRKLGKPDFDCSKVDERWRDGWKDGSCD

Consider `Nc1cc(C2CCCC2)nn1-c1ccccc1`, for which the EC50 (in general, the concentration giving half of the maximal effect) is > 91.2 µM (inactive) in experiment [1]; 7.02 µM (active) in [2]; 0.13 µM (active) in [3]; 6.8 µM (active) with H4; > 91.2 µM (inactive) in [4].
Consider `Cc1ccc(-c2csc(NC3OC(=O)c4ccccc43)n2)cc1` (stereo not given), for which the AC50 (as a rule, the midpoint of the concentration-response curve, whichever way the signal moves) in [5] was 13 µM (active); in experiment [6], 28.3 µM (active); in experiment [7] it was 0.0641 µM (active); in experiment [8], 23.1 µM (active); on Paired box protein Pax-8 it was 7.58 µM (active); in experiment [9], 33.7 µM (active). The AC50 in experiment [10] is 17.3 µM (active).
`C(=N\Nc1nc2ccccc2[nH]1)/c1c[nH]c2ccccc12`: the IC50 (usually the concentration that gives 50% inhibition) in experiment [11] is 35.8 µM (active); in [12], 34.8 µM (inactive); in experiment [13], 11.7 µM (inactive); in experiment [14], 32.2 µM (inactive). Also, the CC50 (commonly the concentration that lowers cell viability or growth by half) in experiment [15] is 81.9 µM (active). For the same molecule, the AC50 in experiment [16] was 0.309 µM (active); in the experiment on HeLa it was 40 µM (active).
Take `C[C@@H]1CCCCO[C@@H](CN(C)S(=O)(=O)c2ccccc2)[C@H](C)CN([C@@H](C)CO)C(=O)c2cc(NC(=O)Nc3ccc(F)cc3)ccc2O1`: the AC50 (in the experiment with HEK293; in experiment [17]) was 21.6 µM (active) in each case.
Consider `O=C(C[C@H]1CC[C@@H]2[C@H](COC[C@@H](O)CN2C(=O)c2cnccn2)O1)NCc1ccc(Oc2ccccc2)cc1`, for which the AC50 (in the experiment with HEK293; in experiment [17]) was 35.7 µM (active) throughout.
For the molecule `COc1ccc(/N=C/c2nc(-c3ccco3)oc2O)cc1`, the EC50 in experiment [1] and in [4] was > 91.2 µM (inactive) throughout.
